Patent publication US20250319211A1, “NEAR IR LUMINESCENCE AND OPTICALLY ADDRESSABLE QUANTUM SENSING AND MAGNETIC IMAGING WITH RADICALOID TETRATHIAFULVALENE TETRATHIOLATES” (The University of Chicago, priority 2022, published 2025)
One block for each compound: values may come before it.

Assays:
[1] = 1,2-dichloroethane, background statement; cited from earlier work
[2] = 1,2-dichloroethane, background statement; cited from earlier work; remark: listed apart in the source
[3] = Photoluminescence quantum yield determination; type: physicochemical
Method: For the photoluminescence spectroscopy, all emission spectra were acquired on a Horiba Scientific PTI QuantaMaster fluorometer. Low temperature emission spectra were recorded by adding samples in 1:1 DCM:toluene into quartz EPR tubes and lowering the tube into an optical dewar filled with liquid N2. Excitation emission matrices were acquired on a Horiba Scientific Fluorolog-3 spectrofluorometer.
The samples, sealed in NMR tubes, were individually placed in an integrating sphere (Thorlabs, IS200-4) with a PbSe detector (Thorlabs, PDA20H) on one port and directly excited by an 808 nm diode laser (Thorlabs, M9-808-0150) of 15 W/cm^2 average intensity under 1 kHz square-wave modulation. The detector signal S, with and without a silicon window on the detector port, was recorded with the sample and with a DCM blank. […] The photoluminescence quantum yield is therefore SS,Si/(SD−SS)×( ? 808/ ? λS)×T^−1 where the subscripts S, D and Si respectively denote the sample, DCM blank, and silicon window. R is the wavelength-dependent PbSe detector responsivity, T is the total emission power transmitted by the silicon window, and λS is the average emission wavelength determined by integration of the spectrum. The detector responsivity is linear with wavelength in this spectral range so that ? 808/ ? λS=808/λS. Due to the spectral overlap between the sample emission and the soft absorption edge of silicon, we calculate T explicitly as ∫E(λ)dλ×
where E(λ) is the normalized sample emission spectrum and T(λ) is the T(λ) normalized silicon window transmission spectrum.
Comparative results for the diradical dication PtTTFtt against a conventional near IR dye (IR 26) provide PLQY of 0.09% in oxygenated 1,2-dichloroethane for compound 2 (PtTTFtt) in comparison to 0.05% for IR 26, as illustrated in FIG. 10.

[4] = Cell viability assay after 72 hr treatment; type: cell-based; conditions: 1% DMSO solution, preliminary
Text: FIG. 21 is a cell viability assay of compound 4 after 72 hr treatment, using 1% DMSO solution in accordance with certain disclosed embodiments.

[5] = Reactivity in the presence of small nucleophiles and ubiquitin (preliminary proteomics studies); conditions: ubiquitin
[6] = Stability of compound 4 (irradiation, air, serum, buffer, water); type: physicochemical

Compound: ClC1=C(/C=C/c2cc(-c3ccccc3)[s+]c3ccccc23)CCC/C1=C\C=C1/C=C(c2ccccc2)Sc2ccccc21.[O-][Cl+3]([O-])([O-])[O-] [IR 26, 4-(7-(2-phenyl-4H-1-benzothiopyran-4-ylidene)-4-chloro-3,5-trimethylene-1,3,5-heptatrienyl)-2-phenyl-1-benzothiopyrylium perchlorate]
- PLQY [1]: 0.05%
- emission [2]: around 1130 nm
- photoluminescence quantum yield (PLQY) ([3]; oxygenated 1,2-dichloroethane): 0.05%

- integrity after exposure to proteins and small nucleophiles [5]: remains intact
- stability to air, fetal bovine serum and phosphate buffer [6]: demonstrated
- persistence of photoluminescence ([6]; continuous irradiation): 21 h
- stability to water and air ([6]; crystallized out of 1:2 MeCN:water over 6 months): remarkable stability
Compound: (Pt{1,5-cyclooctadiene})2 tetrathiafulvalene-2,3,6,7 tetrathiolate diradical dication [Compound 4]
- toxicity [4]: nontoxic

- photoluminescence quantum yield (PLQY) ([3]; 57 μM, dichloromethane, 298K, anaerobic conditions, highest of compounds 1-3): 0.43%
Compound: [(Pt{P(4-CF3Ph)3}2)2TTFtt][BAr^F4]2 [Compound 3]

- photoluminescence quantum yield (PLQY) ([3]; oxygenated 1,2-dichloroethane): 0.09%
Compound: [(Pt{dppe})2TTFtt][BAr^F4]2 [Compound 2]
